Results from ChEMBL document CHEMBL1201862, “PubChem BioAssay data set” (2004).
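A five-concentration, 48-hour dose response in 96-well plates underlies each endpoint, interpolated linearly between surrounding concentrations. GI50 marks 50% less growth.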 Calls of active or inactive are those of the source. Rule as the data show it: active = GI50 up to about 1.1 µM and inactive = higher.

Columns and labels:
Experiment in all cases: NCI anticancer screen, dose series, 48 h
[1] = system: CAKI-1
[2] = system: DLD-1
[3] = system: HOP-18
[4] = system: KM-20L2
[5] = system: M19-MEL
[6] = system: SF-295
[7] = system: SK-MEL-5
[8] = system: SW-620
[9] = system: A498
[10] = system: HCC 2998
[11] = system: HOP-62
[12] = system: KM12
[13] = system: Malme-3M
[14] = system: NCI-H522
[15] = system: SK-MEL-2
[16] = system: BT-549
[17] = system: MDA-MB-231
[18] = system: NCI-H226
[19] = system: NCI/ADR-RES
[20] = system: PC-3

Structure (SMILES): COc1cc(C2C(C(=O)O)=C(CO)Oc3cc4c(cc32)OCO4)cc(OC)c1OC (configuration not stated)
- GI50 [1]: 44 µM (inactive)
- GI50 [2]: > 100 µM (inactive)
- GI50 [3]: 77.1 µM (inactive)
- GI50 [4]: > 100 µM (inactive)
- GI50 [5]: > 100 µM (inactive)
- GI50 [6]: > 100 µM (inactive)
- GI50 [7]: > 100 µM (inactive)
- GI50 [8]: > 100 µM (inactive)

Structure (SMILES): NCCCNCCSSCc1ccccc1CSSCCNCCCN
- GI50 [9]: > 100 µM (inactive)
- GI50 [1]: 35.7 µM (inactive)
- GI50 [2]: 44.4 µM (inactive)
- GI50 [10]: 81.5 µM (inactive)
- GI50 [3]: > 100 µM (inactive)
- GI50 [11]: > 100 µM (inactive)
- GI50 [4]: > 100 µM (inactive)
- GI50 [12]: 49.9 µM (inactive)
- GI50 [5]: 50 µM (inactive)
- GI50 [13]: 90.6 µM (inactive)
- GI50 [14]: 10.7 µM (inactive)
- GI50 [6]: > 100 µM (inactive)
- GI50 [15]: > 100 µM (inactive)
- GI50 [7]: 79.3 µM (inactive)
- GI50 [8]: 16.7 µM (inactive)

Structure (SMILES): CN(C)c1ccc(N2C(=S)SC(=N\c3ccccc3)/C2=N/c2ccccc2)cc1
- GI50 [9]: > 100 µM (inactive)
- GI50 [16]: > 100 µM (inactive)
- GI50 [1]: > 100 µM (inactive)
- GI50 [10]: > 100 µM (inactive)
- GI50 [11]: > 100 µM (inactive)
- GI50 [12]: > 100 µM (inactive)
- GI50 [17]: > 100 µM (inactive)
- GI50 [13]: > 100 µM (inactive)
- GI50 [18]: > 100 µM (inactive)
- GI50 [14]: > 100 µM (inactive)
- GI50 [19]: > 100 µM (inactive)
- GI50 [20]: 37.8 µM (inactive)
- GI50 [6]: > 100 µM (inactive)
- GI50 [15]: > 100 µM (inactive)
- GI50 [7]: > 100 µM (inactive)

Structure (SMILES): CC(NC(C#N)CC12CC3CC(CC(C3)C1)C2)c1ccccc1 (configuration not stated)
- GI50 [9]: > 100 µM (inactive)
- GI50 [1]: 33.3 µM (inactive)
- GI50 [10]: > 100 µM (inactive)
- GI50 [11]: > 100 µM (inactive)
- GI50 [17]: 81.1 µM (inactive)
- GI50 [13]: > 100 µM (inactive)
- GI50 [14]: > 100 µM (inactive)
- GI50 [19]: > 100 µM (inactive)
- GI50 [20]: > 100 µM (inactive)
- GI50 [6]: 20.6 µM (inactive)
- GI50 [7]: > 100 µM (inactive)
- GI50 [8]: 54.8 µM (inactive)

Structure (SMILES): NC(=S)N/N=C1\c2ccccc2CCC1CCC1(O)CCc2ccccc2C1=O (configuration not stated)
- GI50 [16]: 16.4 µM (inactive)
- GI50 [1]: 58.3 µM (inactive)
- GI50 [11]: 57.4 µM (inactive)
- GI50 [12]: 26.9 µM (inactive)
- GI50 [17]: 26.8 µM (inactive)
- GI50 [13]: 19.8 µM (inactive)
- GI50 [19]: 13.8 µM (inactive)
- GI50 [20]: 31 µM (inactive)
- GI50 [6]: 23 µM (inactive)
- GI50 [7]: 15 µM (inactive)
- GI50 [8]: 28 µM (inactive)

Structure (SMILES): COC(=O)C1=C(OC(=O)/C=C/c2ccc(Cl)cc2)C(C(=O)OC)[C@@]2(O)[C@@H](C(=O)OC)[C@H](C)C[C@@H]1[C@@H]2C(=O)OC (some centres not stated)
- GI50 [16]: 21.6 µM (inactive)
- GI50 [1]: 22.5 µM (inactive)
- GI50 [11]: 28.8 µM (inactive)
- GI50 [12]: 34.1 µM (inactive)
- GI50 [17]: 24.5 µM (inactive)
- GI50 [13]: 11.3 µM (inactive)
- GI50 [18]: 20.7 µM (inactive)
- GI50 [14]: 6.81 µM (inactive)
- GI50 [19]: 21.6 µM (inactive)
- GI50 [20]: 20.7 µM (inactive)
- GI50 [6]: 29.4 µM (inactive)
- GI50 [15]: 15.7 µM (inactive)
- GI50 [7]: 17.2 µM (inactive)
- GI50 [8]: 28.4 µM (inactive)

Structure (SMILES): C=C1C(=O)OC2C1CC1OC2C(C)CCC/C(C)=C\CCC1(C)O (configuration not stated)
- GI50 [9]: 19.9 µM (inactive)
- GI50 [1]: 18.6 µM (inactive)
- GI50 [2]: 18.7 µM (inactive)
- GI50 [10]: 20.3 µM (inactive)
- GI50 [3]: 10.6 µM (inactive)
- GI50 [11]: 32.2 µM (inactive)
- GI50 [4]: 29.7 µM (inactive)
- GI50 [12]: 19.8 µM (inactive)
- GI50 [5]: 10.1 µM (inactive)
- GI50 [13]: 32.7 µM (inactive)
- GI50 [18]: 18.4 µM (inactive)
- GI50 [14]: 8.71 µM (inactive)
- GI50 [19]: 14.4 µM (inactive)
- GI50 [6]: 37.5 µM (inactive)
- GI50 [15]: 10.8 µM (inactive)
- GI50 [7]: 5.14 µM (inactive)
- GI50 [8]: 10.9 µM (inactive)

Structure (SMILES): COc1ccc2c(c1)c1cc(OC)ccc1n2CCCCOc1ccc(-c2c3ccccc3c(-c3ccc(OCCCCn4c5ccc(OC)cc5c5cc(OC)ccc54)cc3)c3ccccc23)cc1
- GI50 [1]: > 100 µM (inactive)
- GI50 [2]: > 100 µM (inactive)
- GI50 [10]: > 100 µM (inactive)
- GI50 [11]: > 100 µM (inactive)
- GI50 [4]: > 100 µM (inactive)
- GI50 [12]: > 100 µM (inactive)
- GI50 [5]: > 100 µM (inactive)
- GI50 [13]: > 100 µM (inactive)
- GI50 [18]: > 100 µM (inactive)
- GI50 [14]: > 100 µM (inactive)
- GI50 [15]: > 100 µM (inactive)
- GI50 [8]: > 100 µM (inactive)

Structure (SMILES): CCN(CC)CCCNc1ncc(C)c2[nH]c3ccncc3c12
- GI50 [9]: 17.6 µM (inactive)
- GI50 [2]: 31 µM (inactive)
- GI50 [10]: 8.61 µM (inactive)
- GI50 [11]: 18.6 µM (inactive)
- GI50 [4]: 6.24 µM (inactive)
- GI50 [12]: 6.18 µM (inactive)
- GI50 [5]: 11.5 µM (inactive)
- GI50 [13]: 10.3 µM (inactive)
- GI50 [18]: 5.69 µM (inactive)
- GI50 [14]: 7.74 µM (inactive)
- GI50 [19]: > 100 µM (inactive)
- GI50 [6]: 11.2 µM (inactive)
- GI50 [15]: 10.5 µM (inactive)
- GI50 [7]: 13.6 µM (inactive)
- GI50 [8]: 4.71 µM (inactive)

Structure (SMILES): COc1ccc(C(=O)/C(Br)=C/C(=O)O)cc1
- GI50 [9]: 25.1 µM (inactive)
- GI50 [16]: 17.9 µM (inactive)
- GI50 [1]: 39.3 µM (inactive)
- GI50 [2]: 12.6 µM (inactive)
- GI50 [10]: 19.2 µM (inactive)
- GI50 [3]: 45.8 µM (inactive)
- GI50 [11]: 17.4 µM (inactive)
- GI50 [4]: 29.5 µM (inactive)
- GI50 [12]: 14.7 µM (inactive)
- GI50 [5]: 14.5 µM (inactive)
- GI50 [17]: 28.2 µM (inactive)
- GI50 [13]: 14.8 µM (inactive)
- GI50 [18]: 27.3 µM (inactive)
- GI50 [14]: 7 µM (inactive)
- GI50 [19]: 21.3 µM (inactive)
- GI50 [20]: 29.7 µM (inactive)
- GI50 [6]: 37.9 µM (inactive)
- GI50 [15]: 9.48 µM (inactive)
- GI50 [7]: 20.7 µM (inactive)

Structure (SMILES): COc1cc(C2c3cc4c(cc3[C@@H](Nc3cnc5ccccc5c3)C3COC(=O)[C@H]23)OCO4)cc(OC)c1O (some centres not stated)
- GI50 [9]: 0.22 µM (active)
- GI50 [1]: 0.129 µM (active)
- GI50 [2]: 1.05 µM (active)
- GI50 [10]: 0.794 µM (active)
- GI50 [3]: 0.34 µM (active)
- GI50 [11]: 0.128 µM (active)
- GI50 [4]: 1.47 µM (inactive)
- GI50 [12]: 0.883 µM (active)
- GI50 [5]: 0.422 µM (active)
- GI50 [13]: 0.621 µM (active)
- GI50 [18]: 0.152 µM (active)
- GI50 [14]: 1.03 µM (active)
- GI50 [19]: 1.51 µM (inactive)
- GI50 [6]: 0.148 µM (active)
- GI50 [15]: 1.76 µM (inactive)
- GI50 [7]: 0.193 µM (active)
- GI50 [8]: 0.296 µM (active)

Structure (SMILES): COC1=CC(=O)C=C(OC)C1=O [2,6-DIMETHOXYQUINONE]
- GI50 [9]: 2.49 µM (inactive)
- GI50 [1]: 50.4 µM (inactive)
- GI50 [2]: 8.87 µM (inactive)
- GI50 [10]: 27.9 µM (inactive)
- GI50 [3]: 45.8 µM (inactive)
- GI50 [11]: 25.3 µM (inactive)
- GI50 [4]: 30 µM (inactive)
- GI50 [12]: 16.4 µM (inactive)
- GI50 [5]: 4.22 µM (inactive)
- GI50 [13]: 20.2 µM (inactive)
- GI50 [18]: 1.55 µM (inactive)
- GI50 [14]: 7.05 µM (inactive)
- GI50 [19]: 5.01 µM (inactive)
- GI50 [6]: 13.3 µM (inactive)
- GI50 [15]: 6.55 µM (inactive)
- GI50 [7]: 20.9 µM (inactive)
- GI50 [8]: 6.37 µM (inactive)
